Reference: PMC3355380, “Back to the Future: Lessons Learned in Modern Target-based and Whole-Cell Lead Optimization of Antimalarials” (Current Topics in Medicinal Chemistry, 2012)
Marks after values point to notes of the source that are not given here.

Experiments:
[1] = tested on: panel of cytochrome P450 isoforms; test: in vitro
P. falciparum 3D7 = P. falciparum 3D7 proliferation assay; format: cell-based, Plasmodium falciparum; details: Plasmodium falciparum, 3D7; imidazolopiperazine hits; mean of two experiments; read-out: P. falciparum 3D7 EC50
Text: (§1) We screened both our in-house compound collection (~2.3M compounds) and natural products library (12,000 compounds) using a cell based Plasmodium falciparum proliferation assay. This screen provided data on a large number of chemically diverse anti-malarial compounds. These nearly 5700 hits have been deposited into the public EBI database by GNF/Novartis. A number of these hits originated from kinase-directed libraries and many of which are pan-kinase inhibitors. De-convoluting and eliminating inherent kinase activity with many of these scaffolds while maintaining cellular potency was the first step in the hit-to-lead phase for these particular chemotypes. What follows is a summary of the chemical optimization of some kinase-like and non-kinase scaffolds which came out of the whole-cell screening effort.

P. falciparum W2 = P. falciparum W2 proliferation assay; format: cell-based; details: Plasmodium falciparum, imidazolopiperazine hits, mean of two experiments
Text: as §1

Huh7 = details: human
aqueous solubility = format: physicochemical; details: aqueous medium, pH 6.8, aqueous buffer
hERG = hERG (Homo sapiens, UniProt Q12809); test: hERG binding assay
Sequence of hERG (Q12809 whole entry): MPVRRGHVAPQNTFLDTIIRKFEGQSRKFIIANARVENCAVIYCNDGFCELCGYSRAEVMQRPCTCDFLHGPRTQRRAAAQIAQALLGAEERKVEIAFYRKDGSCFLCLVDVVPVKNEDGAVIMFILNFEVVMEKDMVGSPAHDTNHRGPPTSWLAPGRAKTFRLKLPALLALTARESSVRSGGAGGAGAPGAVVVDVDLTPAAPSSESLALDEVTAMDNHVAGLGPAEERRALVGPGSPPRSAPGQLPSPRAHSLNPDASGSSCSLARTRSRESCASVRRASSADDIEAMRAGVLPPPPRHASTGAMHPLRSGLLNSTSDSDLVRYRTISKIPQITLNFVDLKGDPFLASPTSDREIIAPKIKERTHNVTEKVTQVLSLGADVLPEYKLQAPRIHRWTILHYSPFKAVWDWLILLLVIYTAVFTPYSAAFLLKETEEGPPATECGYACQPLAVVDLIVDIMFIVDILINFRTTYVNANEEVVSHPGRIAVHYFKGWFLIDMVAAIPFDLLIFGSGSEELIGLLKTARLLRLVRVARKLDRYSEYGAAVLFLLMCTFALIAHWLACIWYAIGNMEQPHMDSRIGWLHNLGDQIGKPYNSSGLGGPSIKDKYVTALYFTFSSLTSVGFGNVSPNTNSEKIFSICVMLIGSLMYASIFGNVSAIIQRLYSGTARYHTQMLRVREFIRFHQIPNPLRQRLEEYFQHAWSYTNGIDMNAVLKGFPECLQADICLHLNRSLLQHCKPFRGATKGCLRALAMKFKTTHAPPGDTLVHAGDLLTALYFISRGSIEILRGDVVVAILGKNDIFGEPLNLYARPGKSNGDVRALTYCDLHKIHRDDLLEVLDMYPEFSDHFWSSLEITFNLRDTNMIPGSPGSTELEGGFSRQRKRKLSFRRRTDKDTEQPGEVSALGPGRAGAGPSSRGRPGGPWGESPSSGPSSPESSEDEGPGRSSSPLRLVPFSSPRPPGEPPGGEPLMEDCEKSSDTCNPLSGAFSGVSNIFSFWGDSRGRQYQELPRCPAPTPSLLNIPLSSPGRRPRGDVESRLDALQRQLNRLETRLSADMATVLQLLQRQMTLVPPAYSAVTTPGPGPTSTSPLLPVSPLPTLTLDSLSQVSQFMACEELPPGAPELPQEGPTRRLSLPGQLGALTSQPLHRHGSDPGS

wild type P. falciparum = tested on: wild type P. falciparum; set-up: method as in PMID 20350951; details: read-out: EC50 on wild type P. falciparum in vitro; cited from earlier work
[2] = 2-week rat toxicology study; format: in vivo
hDHFR (human DHFR) = molecular target: hDHFR (human DHFR); set-up: method as in PMID 20350951; details: cited from earlier work
[3] = molecular target: WT-PfDHFR (wild type PfDHFR); set-up: method as in PMID 20350951; details: cited from earlier work
[4] = molecular target: QM-PfDHFR (quadruple mutant PfDHFR); set-up: method as in PMID 20350951; details: cited from earlier work
Plasmodium berghei = test: P. berghei murine model; format: in vivo

## NCC(=O)N1CCn2c(nc(-c3ccccc3)c2Nc2ccc3c(c2)OCO3)C1 [Compound 18a]
[1]
  IC50: > 10000 nM
P. falciparum 3D7
  EC50: 63 nM
P. falciparum W2
  EC50: 97 nM
Huh7
  Cytotoxicity (µM) Huh7: > 10 µM
Aqueous solubility
  solubility: > 175 µM
hERG
  IC50: 19000 nM

## COc1ccc(OC)c(CNc2ccc3nc(N)nc(N)c3c2Cl)c1 [QN254, 5-Chloro-N'6'-(2 5 di-methoxy-benzyl)-quinazoline-2 4 6-triamine]
Wild type P. falciparum
  EC50: 9 nM
[2]; 2-week toxicology study
  histopathological analysis: significant gastrointestinal and bone marrow toxicity
[2]; 2 weeks, repeated oral administration of greater than 50 mg/kg
  tolerability: not tolerated
hDHFR (human DHFR)
  Ki: 10.2 ± 0.6 nM
[3]
  Ki: 0.39 ± 0.05 nM
[4]
  Ki: 0.58 ± 0.06 nM
Plasmodium berghei; 3 x 30 (mg/kg)
  Cure Rate (%): 80%
  Toxicity Rate (%): 0%
Plasmodium berghei; 3 x 30 (mg/kg), control survival 5.6 to 6.2 days
  Average Survival: 28.4 days
Plasmodium berghei; 3 x 60 (mg/kg)
  Cure Rate (%): 60%
  Parasitemia Reduction (%): > 99.99%
Plasmodium berghei; 3 x 60 (mg/kg), mice died around day 10 and were parasite free
  Toxicity Rate (%): 40^b %
Plasmodium berghei; 3 x 100 (mg/kg)
  Cure Rate (%): 20%
  Parasitemia Reduction (%): > 99.99%
Plasmodium berghei; 3 x 100 (mg/kg), mice died around day 10 and were parasite free
  Toxicity Rate (%): 80^b %
Plasmodium berghei; dosing regimen 3 x 30 (mg/kg), oral, compared to untreated controls
  Parasitemia Reduction (%): > 99.99%
